Measurements taken from patent US20240000883A1, “METHOD OF SENSITIZING CANCERS TO IMMUNOTHERAPY USING IMMUNOMODULATORY AGENTS” (The Trustees of Columbia University in the City of New York, priority 2020, published 2024).

Key:
[1] = tested on: Tregs in KPC-luc tumors; experiment: Targeting of Tregs in KPC-luc PDAC by intravenously injected FAM-iRGD; type: in vivo, mice
Protocol: FIG. 2H is an image showing that intravenously injected FAM-iRGD (green) targets CD4^+ (magenta) Foxp3^+ (red) Tregs in KPC-luc PDAC (white arrowheads). Some iRGD-targeted Foxp3^+ cells were CD4^neg (black arrowheads). Blue=DAPI. Scale bar, 50 μm.
Based on the finding that Tregs in PDAC, but not those in the spleen expressed αv integrins and NPR-1 (the receptors of iRGD), studies were performed to determine whether iRGD selectively targets PDAC-infiltrating Tregs. Intravenously injected FAM-iRGD (green) targets CD4^+ (magenta) Foxp3^+ (red) Tregs in KPC-luc PDAC (See FIG. 2H, white arrowheads). Some iRGD-targeted Foxp3^+ cells were CD4^neg (black arrowheads). Blue, DAPI; scale bar, 50 μm.

[2] = tested on: de novo pancreatic ductal adenocarcinoma (PDAC); experiment: Survival of transgenic KPC mice bearing de novo PDAC under long-term treatment; type: in vivo
Protocol: FIG. 1A is a graph showing the percent survival of transgenic Kras-LSL^[…], p53-LSL^172H, Pdx-1-cre (KPC) mice bearing de novo pancreatic ductal adenocarcinoma (PDAC) treated with gemcitabine (GEM).
FIG. 1 presents data showing that iRGD therapy increases CD8^+ T cells in transgenic PDAC mice. […] We randomized mice to therapy with intraperitoneal (IP) gemcitabine alone (100 mg/kg/injection), intravenous (IV) iRGD alone (100 μg/injection) or gemcitabine co-administered with iRGD. Mice were followed with high resolution ultrasound and manual palpation until at least one tumor nodule of 4-5 mm became both palpable and visible on consecutive ultrasound exams. At this point, the mice were randomized to one of the three treatment arms. Treatment was given every 4 days until the animals were sacrificed for having signs of distress. […] Of note, while there was a difference in median survival favoring the combination (71 days versus 84 days), there was a more striking difference in the tail of the survival curve such that survival at 180 days was 0% for gemcitabine alone versus 40% in the iRGD+gemcitabine group.

Molecule | targeting of CD4+ Foxp3+ Tregs in KPC-luc PDAC [1] | survival at 180 days ([2]; 180 days) [%] | median survival ([2]; treatment every 4 days) [days]
FAM-iRGD: fluorescein (FAM)-labeled iRGD | targets | – | –
Nc1ccn([C@@H]2O[C@H](CO)[C@@H](O)C2(F)F)c(=O)n1 [gemcitabine] | – | 0 | 71
